SMILES strings stand for the structures.

Experiment [1] relates to transplanted kidney (F344 to LEWIS rats). In words: Evaluation of graft function (BUN, serum creatinine) after kidney transplantation. It counts as in vivo, rat. The source says:
Individual data points represent the following groups: the syngeneic transplant recipients (Syngenic; n=3), transplant recipients without CHP administration (TPL; n=5), and the CHP-treated transplant recipients (TPL+CHP; n=5). […] This significant improvement in key renal function indicators highlights a promising advancement in post-transplant care, reducing the reliance on immunosuppressive therapies, and prolonging recipient survival and enhancing graft survival.

Experiment [2] shares this test system. In words: Graft kidney tissue findings (histology). It counts as in vivo, rat. Particulars: TPL+CHP group; graft tissue on the 45th day. The source says: These phenomena are believed to be an effect of CHP that can suppress the acute rejection reaction that occurs within days after transplantation. In FIG. 5, graft kidney tissue findings on the 7th day of rejection in the left […] control group (Syngenic TPL) and on the 45th day in the CHP treated group (TPL+CHP).

In experiment [3] the test system is F344 donor kidney transplanted into LEWIS rats. As to the kind of experiment: Survival of recipients in rat allogeneic kidney transplantation, minor MHC incompatible model. It counts as in vivo. Particulars: CHP 40 mg/kg i.v. 1 hour before transplantation, then 40 mg/kg i.p. three times a week, n=4, untreated control 9 days (n=7). How it is done:
Donor surgery: After removing abdominal hair from donor rat under general anesthesia, the surgical area was disinfected and covered with surgical cloth. After a midline incision in the abdominal wall, one kidney was exposed, and 8 iu/kg of heparin was administered intravenously, followed by nephrectomy.
Table Surgery: Removed unnecessary tissue to anastomosis the artery, vein, and ureter of the extracted kidney to the blood vessel and ureter of the recipient, and covered and stored with gauze soaked in saline at 4° C.
Recipient surgery: After removal of abdominal hair of recipient rat under general anesthesia, the surgical area was disinfected and covered with surgical cloth. After a midline incision in the abdominal wall, the right kidney was exposed, the kidney was resected, and the donor renal artery and vein were anastomized end to side to the […]. The ureter of donor's kidney was sutured after incising the bladder. After confirming that the perfusion of the kidney was good (FIG. 1), the abdominal wall was closed, and the animal was placed on a blanket at 37° C. to recover.
As a minor MHC incompatible model, a kidney transplantation model F344 rats were used as donors and LEWIS rats were used as recipients. After resection of the recipients' right kidney on Day 0 (DO), the donors' kidney was transplanted into the recipients. […]

In experiment [4] the test system is transplanted kidney (F344 to LEWIS rats). As to the kind of experiment: Weekly ultrasound (color Doppler) of blood flow to the transplanted kidney. It counts as in vivo, rat. To be noted: CHP treatment group, ultrasound once a week. As to the method: In the control group, CHP administration group (F344 to LEWIS rats), and inbred (LEWIS to LEWIS rats) kidney transplantation model, ultrasound was performed once a week to check the smooth flow of blood to the transplanted kidney.

In experiment [5] the test system is transplanted kidney; Nrf2. In words: PAS and Nrf2 immunohistochemistry of transplanted kidney five days after transplantation. The class given is in vivo, rat. The source says:
All animals were sacrificed at five days from post-kidney transplantation. The administration of CHP to the transplant recipient group decreased tubular atrophy, tubulitis, endothelialitis, leukocyte infiltration, while increasing the level of antioxidative stress marker Nrf2 (Nuclear factor erythroid-2-related factor). These findings highlight the potential of CHP to exert protective (e.g., anti-inflammatory and antioxidative) effects in the transplantation rat model.

For the compound `O=C1N[C@@H](Cc2cnc[nH]2)C(=O)N2CCC[C@@H]12` [CHP, Cyclo histidine-proline], the “function of the grafted organ” value in experiment [1] (CHP-treated animals, entire period of survival, weekly measurements over 46 weeks) was “fully function”. This compound came in with a serum creatinine in experiment [1] (TPL+CHP group at 3 weeks after transplantation, syngenic group 0.71 mg/dL) of 0.82 mg/dL. The serum creatinine levels in experiment [1] (five days post-transplantation, TPL+CHP n=5, TPL without CHP 7.23±0.39, p<0.0001) came out at 1.32 ± 0.13 mg/dL. In addition, in experiment [1] (five days post-transplantation, TPL+CHP n=5, TPL without CHP 193.5±8.54, p<0.0001), the “blood urea nitrogen (BUN)” value stood at 41.98 ± 5.69 mg/dL. Besides, in experiment [2], the “borderline changes suggestive of acute cell-mediated rejection and microvascular inflammation” value is “rapidly decreased”; the “focal glomerular necrosis and severe tubulointerstitial changes” value is reported as “decrease”. In experiment [3], the “mean survival day (SMD)” value amounted to 326 days. Besides, the “blood flow to the transplanted kidney (ultrasound)” value in experiment [4] is given as “blood flow to the kidney was smooth”. Moreover, the “level of antioxidative stress marker Nrf2” value in experiment [5] (Nrf2 immunohistochemistry) is “increasing”. The “tubular atrophy, tubulitis, endothelialitis, leukocyte infiltration” value in experiment [5] (PAS staining) is on record as “decreased”.

Source of the values: patent publication US20240197816A1, “COMPOSITION AND METHOD FOR PROLONG SURVIVAL OF TRANSPLANT AND RECIPIENT” (NovMetaPharma Co., Ltd., priority 2022, published 2024).
